Test results from patent publication US10947244B2, “Forms of a PI3K delta selective inhibitor for use in pharmaceutical formulations” (Rhizen Pharmaceuticals SA, priority 2014, dated 2021).

Experiment: Particle size (PSD) analysis, Malvern Master Sizer 2000 dry powder
Type: physicochemical
Conditions: PTSA salt of TGR-1202; average of three experiments
Method: Particle size (PSD) analysis of the PTSA salts of TGR-1202 prepared in Examples 1 and 2 was performed as described below using a Malvern Master Sizer 2000 with the Scirocco 2000 dry powder system. The instrument parameters were: • Particle RI: 1.50 • Absorption index: 0.1 • Obscuration range: 1-5% • Analysis Model: General purpose • Sensitivity: Normal • Air Pressure: 2.0 Bar • Feed rate: 30% • Sample measurement Time: 6 Second • Background measurement Time: 6 Second • Number of measurement cycle: 1
Procedure: 5 g of TGR-1202 was transferred into a sample measuring cell (i.e., Scirocco 2000) and the airflow was started. Laser intensity was maintained more than 70%. Measurement was started and the vibration feed rate was increased in order to achieve the obscuration within the limits. Once the obscuration came within the limit, measurement was recorded. Analysis was performed in triplicate and the results provided are an average of three experiments.

Structure (SMILES) | d(0.1) [μm] | d(0.5) [μm] | d(0.9) [μm]
CC(C)Oc1ccc(-c2nn([C@@H](C)c3oc4ccc(F)cc4c(=O)c3-c3cccc(F)c3)c3ncnc(N)c23)cc1F [Example 1, (S)-2-(1-(4-amino-3-(3-fluoro-4-isopropoxyphenyl)-1H-pyrazolo[3,4-d]pyrimidin-1-yl)ethyl)-6-fluoro-3-(3-fluorophenyl)-4H-chromen-4-one 4-methyl-benzenesulfonate] | 8.01 | 147.41 | 510.73
CC(C)Oc1ccc(-c2nn([C@@H](C)c3oc4ccc(F)cc4c(=O)c3-c3cccc(F)c3)c3ncnc(N)c23)cc1F [Example 2, (S)-2-(1-(4-amino-3-(3-fluoro-4-isopropoxyphenyl)-1H-pyrazolo[3,4-d]pyrimidin-1-yl)ethyl)-6-fluoro-3-(3-fluorophenyl)-4H-chromen-4-one 4-methyl-benzenesulfonate] | 1.07 | 3.98 | 12.18
